ChEMBL document CHEMBL3232809, “Synthesis, antibiotic activity and structure-activity relationship study of some 3-enaminetetramic acids” (2014)
Values after ≈ are worked out from the molar mass of the structure shown.

Experiments:
Assay type in all cases: functional
Streptococcus pneumoniae [1] = experiment: Antimicrobial activity against penicillin- and erythromycin-resistant Streptococcus pneumoniae
Streptococcus pneumoniae [2] = experiment: Antimicrobial activity against penicillin- and erythromycin-resistant Streptococcus pneumoniae in presence of 2.5% horse blood
Staphylococcus aureus [3] = experiment: Antimicrobial activity against methicillin-sensitive Staphylococcus aureus ATCC 13709
Staphylococcus aureus [4] = experiment: Antimicrobial activity against vancomycin-susceptible Staphylococcus aureus ATCC 25923
Staphylococcus aureus [5] = experiment: Antimicrobial activity against Staphylococcus aureus Oxford
Staphylococcus aureus [6] = experiment: Antimicrobial activity against methicillin-resistant Staphylococcus aureus
Enterococcus faecalis = experiment: Antimicrobial activity against vancomycin-susceptible Enterococcus faecalis ATCC 29212
Enterococcus faecium = experiment: Antimicrobial activity against vancomycin-resistant Enterococcus faecium
Streptococcus pneumoniae [7] = experiment: Antimicrobial activity against erythromycin-susceptible Streptococcus pneumoniae ATCC 49619
Haemophilus influenzae [8] = experiment: Antimicrobial activity against Haemophilus influenzae ATCC 31517 MMSA
Haemophilus influenzae [9] = experiment: Antimicrobial activity against LS2 Efflux knock-out Haemophilus influenzae
Escherichia coli [10] = experiment: Antimicrobial activity against Escherichia coli ATCC 25922
Escherichia coli [11] = experiment: Antimicrobial activity against Escherichia coli 50
Pseudomonas aeruginosa = experiment: Antimicrobial activity against Pseudomonas aeruginosa ATCC 27853
Escherichia coli [12] = experiment: Antimicrobial activity against Escherichia coli 49

Compound	MIC (Streptococcus pneumoniae [1]) [µg/mL]	MIC (Streptococcus pneumoniae [2]) [µg/mL]	MIC (Staphylococcus aureus [3]) [µg/mL]	MIC (Staphylococcus aureus [4]) [µg/mL]	MIC (Staphylococcus aureus [5]) [µg/mL]	MIC (Staphylococcus aureus [6]) [µg/mL]	MIC (Enterococcus faecalis) [µg/mL]	MIC (Enterococcus faecium) [µg/mL]	MIC (Streptococcus pneumoniae [7]) [µg/mL]	MIC (Haemophilus influenzae [8]) [µg/mL]	MIC (Haemophilus influenzae [9]) [µg/mL]	MIC (Escherichia coli [10]) [µg/mL]	MIC (Escherichia coli [11]) [µg/mL]	MIC (Pseudomonas aeruginosa) [µg/mL]	MIC (Escherichia coli [12]) [µg/mL]
CCCCCCN1CC(=O)/C(=C(/NC2CCCCC2)C2CCCCC2)C1=O	2 (≈ 5.34 µM)	64	> 64	> 64	> 64	> 64	> 64	> 64	2 (≈ 5.34 µM)	> 64	> 64	> 32	> 32	> 32	> 32
CCCCCCCCCCC/C(NCCCOC(C)C)=C1\C(=O)CNC1=O	4 (≈ 10.5 µM)	32	16 (≈ 42 µM)	> 64	16 (≈ 42 µM)	64 (≈ 168 µM)	16 (≈ 42 µM)	8 (≈ 21 µM)	4 (≈ 10.5 µM)	> 64	2 (≈ 5.26 µM)	> 32	> 32	> 32	> 32
CCCCCC/C(=C1/C(=O)N2[C@@H](C(C)(C)C)OC[C@]2(C(=O)OC)C1=O)N1CCCCC1	> 32	> 32	> 32	> 32	> 32	> 32	> 32	> 32	> 32	> 32	> 32	> 32	> 32	> 32	> 32
CCCCCCC/C=C/C(=O)N1C(=O)/C(=C(\C)Nc2ccc(N3CCOCC3)cc2)C(=O)C1CC(C)C (configuration not stated)	> 32	> 32	> 32	> 32	> 32	> 32	> 32	> 32	> 32	> 32	> 32	> 32	> 32	> 32	> 32
COC(=O)[C@@]12CO[C@@H](C(C)(C)C)N1C(=O)/C(=C(\C)NCC1CCC3CC1C3(C)C)C2=O (some centres not stated)	> 32	> 32	> 32	> 32	> 32	> 32	> 32	> 32	> 32	> 32	> 32	> 32	> 32	> 32	> 32
CCCC(=O)N1CC(=O)/C(=C(\CC23CC4CC(CC(C4)C2)C3)NCCCN2CCCCC2C)C1=O (configuration not stated)	32 (≈ 66.2 µM)	32	64 (≈ 132 µM)	64 (≈ 132 µM)	64 (≈ 132 µM)	64 (≈ 132 µM)	64 (≈ 132 µM)	64 (≈ 132 µM)	32 (≈ 66.2 µM)	> 64	32 (≈ 66.2 µM)	> 32	> 32	> 32	> 32
CCCCCCC(=O)N1CC(=O)/C(=C(\CCCCCC)NC2CCCCC2)C1=O	> 32	> 32	> 32	> 32	> 32	> 32	> 32	> 32	> 32	> 32	> 32	> 32	> 32	> 32	> 32
C/C(NCCOc1ccccc1)=C1\C(=O)N2[C@H](C(C)(C)C)OC[C@@]2(C)C1=O (racemic)	1 (≈ 2.68 µM)	2	8 (≈ 21.5 µM)	4 (≈ 10.7 µM)	8 (≈ 21.5 µM)	8 (≈ 21.5 µM)	4 (≈ 10.7 µM)	1 (≈ 2.68 µM)	1 (≈ 2.68 µM)	4 (≈ 10.7 µM)	< 0.06	> 32	> 32	> 32	> 32
CCCCCCCCCCCCC/C(Nc1ccccc1)=C1\C(=O)CNC1=O	> 32	> 32	> 32	> 32	> 32	> 32	> 32	> 32	> 32	> 32	> 32	> 32	> 32	> 32	> 32
C/C(NC12CC3CC(CC(C3)C1)C2)=C1\C(=O)N2[C@H](C(C)(C)C)OC[C@@]2(C)C1=O (mixture of isomers)	> 64	> 64	> 64	> 64	> 64	> 64	> 64	> 64	> 64	> 64	16	> 32	> 32	> 32	> 32
CCCCC/C(NC(C)CCCN(CC)CC)=C1\C(=O)C(CCSC)N(C(=O)CC(C)CC(C)(C)C)C1=O (configuration not stated)	4 (≈ 7.25 µM)	8	16 (≈ 29 µM)	16 (≈ 29 µM)	8 (≈ 14.5 µM)	16 (≈ 29 µM)	16 (≈ 29 µM)	8 (≈ 14.5 µM)	8 (≈ 14.5 µM)	> 64	8 (≈ 14.5 µM)	> 32	> 32	> 32	> 32
CCCCCCCCC/C(=C1\C(=O)CNC1=O)N1CCCCC1	16 (≈ 49.9 µM)	16	16 (≈ 49.9 µM)	16 (≈ 49.9 µM)	16 (≈ 49.9 µM)	16 (≈ 49.9 µM)	16 (≈ 49.9 µM)	8 (≈ 25 µM)	> 64	64 (≈ 200 µM)	> 64	> 32	> 32	> 32	> 32
O=C1CNC(=O)/C1=C(\NCc1ccccc1)c1cccc2ccccc12	> 32	> 32	> 32	> 32	> 32	> 32	> 32	> 32	> 32	> 32	> 32	> 32	> 32	> 32	> 32
C/C(NCCOc1ccccc1Cl)=C1/C(=O)CN(C(=O)OC(C)(C)C)C1=O	> 64	> 64		> 64	> 64	> 64	> 64	> 64	> 64	> 64	32 (≈ 81 µM)	> 32	> 32	> 32	> 32
O=C(O)c1cn(C2CC2)c2cc(N3CCNCC3)c(F)cc2c1=O [CIPROFLOXACIN]	1 (≈ 3.02 µM)	1	0.12 (≈ 0.362 µM)	0.5 (≈ 1.51 µM)	0.12 (≈ 0.362 µM)		1 (≈ 3.02 µM)	32 (≈ 96.6 µM)	1 (≈ 3.02 µM)	0.5 (≈ 1.51 µM)	≤ 0.06				
CC(=O)NC[C@H]1CN(c2ccc(N3CCOCC3)c(F)c2)C(=O)O1 [LINEZOLID]								2 (≈ 5.93 µM)		16 (≈ 47.4 µM)	4 (≈ 11.9 µM)				
